In article PMC9329436, “Optimization of the 4-anilinoquin(az)oline scaffold as epidermal growth factor receptor (EGFR) inhibitors for chordoma utilizing a toxicology profiling assay platform” (Scientific Reports, 2022):
Where two headings read alike, the source gives them in different places.

Legend:
Type in all cases: biochemical
[1] = molecular target: 320 wild-type protein kinases (Homo sapiens, UniProt O00311); settings: singlicate
From the text: (§1) Table S4. Profiling of two compounds at two concentrations against 320 wild-type protein kinases; singlicate measurement; Residual activities (% of control).

[2] = molecular target: 320 wild-type protein kinases (Homo sapiens, UniProt Q14680); settings: MELK, singlicate
From the text: as §1

[3] = molecular target: 320 wild-type protein kinases (Homo sapiens, UniProt Q5S007); settings: singlicate
From the text: as §1

[4] = molecular target: T1, 320 wild-type protein kinases (Homo sapiens, UniProt Q32MK0); settings: singlicate
T1 sequence (Q32MK0 1-819): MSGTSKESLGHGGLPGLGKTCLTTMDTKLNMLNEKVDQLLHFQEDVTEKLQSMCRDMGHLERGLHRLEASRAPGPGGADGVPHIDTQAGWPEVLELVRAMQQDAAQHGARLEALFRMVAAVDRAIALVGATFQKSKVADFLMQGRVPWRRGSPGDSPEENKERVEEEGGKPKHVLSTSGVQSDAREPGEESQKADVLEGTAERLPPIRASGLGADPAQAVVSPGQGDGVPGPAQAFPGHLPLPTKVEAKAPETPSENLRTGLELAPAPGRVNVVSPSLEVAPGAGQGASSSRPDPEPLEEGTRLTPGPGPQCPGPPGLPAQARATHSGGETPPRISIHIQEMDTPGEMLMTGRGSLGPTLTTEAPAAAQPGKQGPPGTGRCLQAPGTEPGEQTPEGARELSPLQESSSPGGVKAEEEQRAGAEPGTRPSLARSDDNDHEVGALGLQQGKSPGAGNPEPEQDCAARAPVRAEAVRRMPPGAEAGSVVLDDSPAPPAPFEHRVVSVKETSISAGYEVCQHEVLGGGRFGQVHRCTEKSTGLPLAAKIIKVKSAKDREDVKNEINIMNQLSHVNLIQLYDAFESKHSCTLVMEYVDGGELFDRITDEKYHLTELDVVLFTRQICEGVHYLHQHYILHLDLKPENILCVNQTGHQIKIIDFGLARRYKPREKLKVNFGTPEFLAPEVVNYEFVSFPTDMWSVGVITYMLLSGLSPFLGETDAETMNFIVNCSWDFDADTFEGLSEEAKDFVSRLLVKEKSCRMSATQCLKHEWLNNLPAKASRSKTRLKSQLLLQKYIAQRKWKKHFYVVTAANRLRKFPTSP
From the text: as §1

[5] = molecular target: 320 wild-type protein kinases (Homo sapiens, UniProt P07332); settings: FES, singlicate
From the text: as §1

[6] = molecular target: 320 wild-type protein kinases (Homo sapiens, UniProt P00519); settings: singlicate
From the text: as §1

[7] = molecular target: T2, 320 wild-type protein kinases (Homo sapiens, UniProt O14965); settings: Aurora-A, singlicate
T2 sequence (O14965 1-403): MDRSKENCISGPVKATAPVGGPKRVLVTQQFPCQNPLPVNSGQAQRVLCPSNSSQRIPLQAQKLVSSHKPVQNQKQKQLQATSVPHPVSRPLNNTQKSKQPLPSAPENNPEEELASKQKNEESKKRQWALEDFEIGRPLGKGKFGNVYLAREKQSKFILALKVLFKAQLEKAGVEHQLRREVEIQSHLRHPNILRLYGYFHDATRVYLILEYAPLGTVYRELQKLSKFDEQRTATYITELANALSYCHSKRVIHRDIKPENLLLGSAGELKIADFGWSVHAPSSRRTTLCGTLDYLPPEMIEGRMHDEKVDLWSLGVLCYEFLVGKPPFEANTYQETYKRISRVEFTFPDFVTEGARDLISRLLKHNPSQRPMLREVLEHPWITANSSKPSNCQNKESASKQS
From the text: as §1

[8] = molecular target: 320 wild-type protein kinases (Homo sapiens, UniProt Q9UPE1); settings: kinase STK23, singlicate
From the text: as §1

[9] = molecular target: 320 wild-type protein kinases (Homo sapiens, UniProt P43250); settings: singlicate
From the text: as §1

[10] = molecular target: 320 wild-type protein kinases (Homo sapiens, UniProt P51617); settings: singlicate
From the text: as §1

[11] = molecular target: T3, 320 wild-type protein kinases (Homo sapiens, UniProt Q13470); settings: kinase TNK1, singlicate
T3 sequence (Q13470 1-666): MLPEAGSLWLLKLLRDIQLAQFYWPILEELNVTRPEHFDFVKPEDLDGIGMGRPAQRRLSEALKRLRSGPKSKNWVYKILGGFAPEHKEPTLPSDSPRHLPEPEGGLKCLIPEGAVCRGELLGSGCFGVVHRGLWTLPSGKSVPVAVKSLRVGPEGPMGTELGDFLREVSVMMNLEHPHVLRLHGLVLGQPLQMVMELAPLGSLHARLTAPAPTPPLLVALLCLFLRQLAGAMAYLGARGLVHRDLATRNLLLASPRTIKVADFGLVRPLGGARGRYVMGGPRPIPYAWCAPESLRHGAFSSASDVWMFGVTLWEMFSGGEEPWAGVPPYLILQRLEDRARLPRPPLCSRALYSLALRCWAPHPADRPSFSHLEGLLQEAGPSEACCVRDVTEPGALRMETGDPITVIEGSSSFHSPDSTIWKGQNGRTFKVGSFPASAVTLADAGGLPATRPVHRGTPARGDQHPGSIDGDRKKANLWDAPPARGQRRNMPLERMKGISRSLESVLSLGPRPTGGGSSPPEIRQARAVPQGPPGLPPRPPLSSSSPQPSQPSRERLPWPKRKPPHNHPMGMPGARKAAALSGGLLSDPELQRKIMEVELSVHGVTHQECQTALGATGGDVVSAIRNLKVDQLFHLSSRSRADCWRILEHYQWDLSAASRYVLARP
From the text: as §1

[12] = molecular target: 320 wild-type protein kinases (Homo sapiens, UniProt O60674); settings: singlicate
From the text: as §1

320 wild-type protein kinases (Homo sapiens, UniProt P07332), sequence (P07332 whole entry): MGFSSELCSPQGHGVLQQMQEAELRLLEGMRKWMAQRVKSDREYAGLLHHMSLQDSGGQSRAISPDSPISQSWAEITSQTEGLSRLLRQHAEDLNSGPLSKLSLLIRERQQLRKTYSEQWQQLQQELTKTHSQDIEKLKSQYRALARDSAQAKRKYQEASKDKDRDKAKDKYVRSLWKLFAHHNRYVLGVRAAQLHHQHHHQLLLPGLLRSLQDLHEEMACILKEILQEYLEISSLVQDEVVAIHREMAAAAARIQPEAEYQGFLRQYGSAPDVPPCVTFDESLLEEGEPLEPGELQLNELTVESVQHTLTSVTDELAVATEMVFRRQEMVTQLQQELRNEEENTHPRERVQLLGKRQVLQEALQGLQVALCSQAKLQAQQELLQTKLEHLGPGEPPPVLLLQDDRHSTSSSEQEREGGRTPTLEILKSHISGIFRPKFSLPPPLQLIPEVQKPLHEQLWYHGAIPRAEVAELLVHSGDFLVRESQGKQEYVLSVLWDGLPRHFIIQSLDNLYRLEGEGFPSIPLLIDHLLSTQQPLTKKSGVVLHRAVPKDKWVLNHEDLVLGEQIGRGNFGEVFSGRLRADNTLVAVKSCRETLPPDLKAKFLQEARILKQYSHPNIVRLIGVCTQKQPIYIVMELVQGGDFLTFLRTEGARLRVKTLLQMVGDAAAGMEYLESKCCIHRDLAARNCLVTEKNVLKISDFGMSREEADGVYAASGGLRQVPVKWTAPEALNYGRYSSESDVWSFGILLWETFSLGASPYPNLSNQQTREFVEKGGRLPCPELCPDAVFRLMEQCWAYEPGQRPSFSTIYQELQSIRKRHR
320 wild-type protein kinases (Homo sapiens, UniProt O00311), sequence (O00311 whole entry): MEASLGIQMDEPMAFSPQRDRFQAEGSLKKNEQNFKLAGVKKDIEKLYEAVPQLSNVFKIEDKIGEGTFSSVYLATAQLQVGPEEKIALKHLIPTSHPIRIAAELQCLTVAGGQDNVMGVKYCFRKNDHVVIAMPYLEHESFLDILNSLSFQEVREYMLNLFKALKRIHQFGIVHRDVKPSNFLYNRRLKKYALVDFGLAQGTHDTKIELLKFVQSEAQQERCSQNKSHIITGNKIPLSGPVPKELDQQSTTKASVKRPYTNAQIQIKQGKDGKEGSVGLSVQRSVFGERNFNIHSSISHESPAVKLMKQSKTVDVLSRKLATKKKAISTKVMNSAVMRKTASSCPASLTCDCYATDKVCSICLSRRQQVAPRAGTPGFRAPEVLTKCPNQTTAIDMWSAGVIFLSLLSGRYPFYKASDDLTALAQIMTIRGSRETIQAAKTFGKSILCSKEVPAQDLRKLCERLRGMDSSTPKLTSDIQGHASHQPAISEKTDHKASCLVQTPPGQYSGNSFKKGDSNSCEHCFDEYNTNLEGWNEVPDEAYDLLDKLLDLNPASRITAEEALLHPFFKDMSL
320 wild-type protein kinases (Homo sapiens, UniProt Q9UPE1), sequence (Q9UPE1 whole entry): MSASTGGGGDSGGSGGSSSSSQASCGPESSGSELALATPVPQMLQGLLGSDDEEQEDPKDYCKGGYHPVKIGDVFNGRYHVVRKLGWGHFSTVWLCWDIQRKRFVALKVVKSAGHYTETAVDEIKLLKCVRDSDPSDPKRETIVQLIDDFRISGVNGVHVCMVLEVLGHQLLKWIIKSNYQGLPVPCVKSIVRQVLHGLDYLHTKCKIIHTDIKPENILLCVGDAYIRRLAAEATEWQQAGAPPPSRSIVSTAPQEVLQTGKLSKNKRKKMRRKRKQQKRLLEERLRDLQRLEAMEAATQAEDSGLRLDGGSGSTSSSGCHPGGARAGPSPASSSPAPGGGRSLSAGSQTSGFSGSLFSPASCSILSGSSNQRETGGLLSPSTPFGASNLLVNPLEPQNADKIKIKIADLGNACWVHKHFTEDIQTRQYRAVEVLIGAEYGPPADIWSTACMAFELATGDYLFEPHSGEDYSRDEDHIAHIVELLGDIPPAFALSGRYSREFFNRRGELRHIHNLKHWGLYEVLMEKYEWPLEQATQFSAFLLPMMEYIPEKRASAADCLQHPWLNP
320 wild-type protein kinases (Homo sapiens, UniProt P51617), sequence (P51617 whole entry): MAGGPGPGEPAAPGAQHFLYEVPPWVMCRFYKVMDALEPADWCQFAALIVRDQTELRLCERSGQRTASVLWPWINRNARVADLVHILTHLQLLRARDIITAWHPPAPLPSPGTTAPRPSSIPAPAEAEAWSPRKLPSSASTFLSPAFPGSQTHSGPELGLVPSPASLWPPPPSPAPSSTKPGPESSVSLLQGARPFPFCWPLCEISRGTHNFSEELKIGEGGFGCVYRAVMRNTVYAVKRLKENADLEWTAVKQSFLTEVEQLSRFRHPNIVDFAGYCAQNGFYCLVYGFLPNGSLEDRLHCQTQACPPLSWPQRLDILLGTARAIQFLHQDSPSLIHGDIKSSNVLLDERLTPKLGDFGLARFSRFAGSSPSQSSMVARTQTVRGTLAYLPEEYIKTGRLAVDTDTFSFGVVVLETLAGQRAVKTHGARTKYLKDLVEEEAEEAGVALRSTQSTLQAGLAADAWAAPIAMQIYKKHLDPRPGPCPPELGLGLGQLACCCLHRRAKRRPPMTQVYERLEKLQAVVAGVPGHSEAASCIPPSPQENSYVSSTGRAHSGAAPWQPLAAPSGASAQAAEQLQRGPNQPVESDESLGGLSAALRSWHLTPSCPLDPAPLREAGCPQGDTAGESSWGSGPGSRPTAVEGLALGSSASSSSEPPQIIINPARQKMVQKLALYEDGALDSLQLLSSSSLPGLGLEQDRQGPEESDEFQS
320 wild-type protein kinases (Homo sapiens, UniProt O60674), sequence (O60674 whole entry): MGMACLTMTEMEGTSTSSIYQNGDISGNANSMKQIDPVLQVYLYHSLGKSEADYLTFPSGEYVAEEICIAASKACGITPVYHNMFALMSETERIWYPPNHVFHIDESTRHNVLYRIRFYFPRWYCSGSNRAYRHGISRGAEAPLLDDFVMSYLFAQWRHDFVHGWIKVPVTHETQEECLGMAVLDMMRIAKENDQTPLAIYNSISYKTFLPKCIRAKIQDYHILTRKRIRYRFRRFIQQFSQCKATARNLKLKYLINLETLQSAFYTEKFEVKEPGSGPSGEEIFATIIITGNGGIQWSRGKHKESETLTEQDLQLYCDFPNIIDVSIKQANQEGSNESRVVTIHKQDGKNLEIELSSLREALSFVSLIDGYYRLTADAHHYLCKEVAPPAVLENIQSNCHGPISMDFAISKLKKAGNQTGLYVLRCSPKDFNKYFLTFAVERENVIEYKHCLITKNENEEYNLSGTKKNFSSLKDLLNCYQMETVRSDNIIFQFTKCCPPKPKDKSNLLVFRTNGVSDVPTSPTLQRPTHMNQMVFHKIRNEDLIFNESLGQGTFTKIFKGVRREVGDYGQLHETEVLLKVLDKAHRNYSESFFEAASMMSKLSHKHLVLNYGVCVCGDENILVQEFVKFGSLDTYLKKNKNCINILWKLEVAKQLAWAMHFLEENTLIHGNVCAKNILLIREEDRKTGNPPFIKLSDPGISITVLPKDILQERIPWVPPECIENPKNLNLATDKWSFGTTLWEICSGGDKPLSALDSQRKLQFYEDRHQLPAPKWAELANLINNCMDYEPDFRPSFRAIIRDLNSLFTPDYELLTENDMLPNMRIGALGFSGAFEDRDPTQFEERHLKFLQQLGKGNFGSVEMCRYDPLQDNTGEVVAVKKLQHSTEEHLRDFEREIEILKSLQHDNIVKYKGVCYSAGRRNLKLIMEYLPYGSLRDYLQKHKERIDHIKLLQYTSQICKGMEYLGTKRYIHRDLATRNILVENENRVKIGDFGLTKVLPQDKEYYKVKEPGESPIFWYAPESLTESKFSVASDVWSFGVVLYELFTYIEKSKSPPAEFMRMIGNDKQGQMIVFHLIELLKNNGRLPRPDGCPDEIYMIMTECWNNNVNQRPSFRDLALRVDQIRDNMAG
320 wild-type protein kinases (Homo sapiens, UniProt P00519), sequence (P00519 whole entry): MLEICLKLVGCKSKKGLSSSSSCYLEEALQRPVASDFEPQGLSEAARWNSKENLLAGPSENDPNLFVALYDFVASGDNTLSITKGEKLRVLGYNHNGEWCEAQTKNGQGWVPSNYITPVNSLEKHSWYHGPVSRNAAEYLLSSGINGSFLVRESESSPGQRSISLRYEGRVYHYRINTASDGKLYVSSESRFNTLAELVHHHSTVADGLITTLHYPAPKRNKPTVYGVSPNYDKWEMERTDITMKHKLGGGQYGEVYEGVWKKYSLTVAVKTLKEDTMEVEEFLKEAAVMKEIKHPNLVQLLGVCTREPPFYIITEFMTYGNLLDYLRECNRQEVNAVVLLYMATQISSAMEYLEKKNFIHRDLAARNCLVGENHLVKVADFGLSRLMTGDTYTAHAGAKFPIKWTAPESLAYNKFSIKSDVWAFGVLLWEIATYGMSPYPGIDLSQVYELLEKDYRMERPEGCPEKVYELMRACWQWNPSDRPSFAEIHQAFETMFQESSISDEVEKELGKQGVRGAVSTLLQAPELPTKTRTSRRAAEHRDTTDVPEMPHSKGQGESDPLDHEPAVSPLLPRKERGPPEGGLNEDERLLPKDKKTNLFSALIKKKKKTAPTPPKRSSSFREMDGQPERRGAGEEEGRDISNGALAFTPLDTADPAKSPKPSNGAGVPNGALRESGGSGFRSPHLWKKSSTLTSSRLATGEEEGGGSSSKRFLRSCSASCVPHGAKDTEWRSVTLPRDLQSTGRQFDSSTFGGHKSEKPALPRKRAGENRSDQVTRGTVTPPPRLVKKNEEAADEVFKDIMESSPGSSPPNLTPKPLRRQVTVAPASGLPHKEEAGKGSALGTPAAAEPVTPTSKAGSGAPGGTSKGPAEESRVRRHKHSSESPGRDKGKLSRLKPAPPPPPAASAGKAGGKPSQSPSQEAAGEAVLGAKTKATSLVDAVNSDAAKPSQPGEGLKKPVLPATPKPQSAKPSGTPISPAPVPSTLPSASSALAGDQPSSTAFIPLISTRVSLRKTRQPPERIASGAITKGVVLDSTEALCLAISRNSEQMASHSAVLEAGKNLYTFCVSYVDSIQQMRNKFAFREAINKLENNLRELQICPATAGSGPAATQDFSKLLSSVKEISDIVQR

SMILES	Residual activity ([1]; CDC7/DBF4, 1.0E-06 M)	Residual activity ([1]; CDC7/DBF4, 1.0E-07 M)	Residual activity ([2]; 1.0E-06 M)	Residual activity ([2]; 1.0E-07 M)	Residual activity ([3]; LRRK2, 1.0E-06 M)	Residual activity ([3]; LRRK2, 1.0E-07 M)	Residual activity ([4]; MYLK3, 1.0E-06 M)	Residual activity ([4]; MYLK3, 1.0E-07 M)	Residual activity ([5]; 1.0E-06 M)	Residual activity ([5]; 1.0E-07 M)	Residual activity ([6]; ABL1, 1.0E-06 M)	Residual activity ([6]; ABL1, 1.0E-07 M)	Residual activity ([7]; 1.0E-06 M)	Residual activity ([7]; 1.0E-07 M)	Residual activity, STK23 ([8]; assay conc. 1.0E-06 M)	Residual activity, STK23 ([8]; assay conc. 1.0E-07 M)	Residual activity ([9]; GRK6, 1.0E-06 M)	Residual activity ([9]; GRK6, 1.0E-07 M)	Residual activity ([10]; IRAK1, 1.0E-06 M)	Residual activity ([10]; IRAK1, 1.0E-07 M)	also measured
C#Cc1cc(Nc2ncnc3cc(I)ccc23)ccc1Cl [Compound 41]	90 % of control	89 % of control	92 % of control	101 % of control	87 % of control	88 % of control	93 % of control	104 % of control	93 % of control	118 % of control	72 % of control	85 % of control	81 % of control	95 % of control	94 % of control	93 % of control	120 % of control	124 % of control	103 % of control	109 % of control	Residual activity, TNK1 ([11]; assay conc. 1.0E-06 M): 112 % of control; Residual activity, TNK1 ([11]; assay conc. 1.0E-07 M): 130 % of control; Residual activity ([12]; JAK2, 1.0E-06 M): 98 % of control; Residual activity ([12]; JAK2, 1.0E-07 M): 105 % of control
C#Cc1cc(Nc2ncnc3cc(OC)c(OC)cc23)ccc1Cl [Compound 45]	88 % of control	107 % of control	101 % of control	109 % of control	81 % of control	99 % of control	86 % of control	100 % of control	97 % of control	107 % of control	59 % of control	100 % of control	80 % of control	99 % of control	87 % of control	97 % of control	101 % of control	133 % of control	105 % of control	109 % of control	Residual activity, TNK1 ([11]; assay conc. 1.0E-06 M): 83 % of control; Residual activity, TNK1 ([11]; assay conc. 1.0E-07 M): 117 % of control; Residual activity ([12]; JAK2, 1.0E-06 M): 92 % of control; Residual activity ([12]; JAK2, 1.0E-07 M): 102 % of control
